Assay results published in patent US11331288B2, “Conditioning irradiated tissue for increasing vascularity” (THE BOARD OF TRUSTEES OF THE LELAND STANFORD JUNIOR …, priority 2017, dated 2022).

Experiments:
irradiated scalp = experiment: Laser Doppler analysis of perfusion of irradiated scalp, DFO injected beneath the dermis (Example 1); format: in vivo, mice
Protocol: (§1) Adult 60-day-old male Crl:NU-Fox1^NU immunocompromised mice were used for experiments in this study. Twelve mice were treated with a total of 30 Gy external beam radiation, delivered as six fractionated doses of 5 Gy each over 12 days, followed by 5 weeks of recovery. An additional six non-irradiated mice were used as healthy controls for laser Doppler analysis (LDA) and skin analysis. Irradiated mice were divided into two treatment groups: a DFO experimental group and saline control group. Following recovery, mice underwent injection of either DFO (1 mg in 100 μl saline) or 100 μl of saline alone beneath the dermis every other day for a total of seven treatments.
(§2) After irradiation, fat grafting was performed on the irradiated mice. After informed consent was obtained, lipoaspirate was obtained from three healthy female donors, with no other medical co-morbidities under an approved IRB protocol #2188. Lipoaspirate was allowed to settle for 15 minutes for layers to separate by gravity sedimentation, and then oil and blood layers were removed by vacuum aspiration. The remaining fat layer was centrifuged at 1300 rcf for 3 minutes at 4° C. Any remaining oil and blood was again removed and the remaining fat was transferred into 1 cc syringes for injection through a 14-gauge needle. Fat grafting was performed beneath the scalp by creating a subcutaneous tunnel with the needle and then injecting 200 μl of lipoaspirate in retrograde fashion while pulling the needle out.
Laser Doppler Analysis (“LDA”) was performed to measure perfusion at the irradiated site using a Perimed PIM 3 laser Doppler perfusion imager (Datavagen, Sweden). The signal generated by the LDA, laser Doppler perfusion index (LDPI), was used for comparative purposes. LDPI is a product of the blood cell velocity and concentration and is represented by a color spectrum, with black/dark blue representing low perfusion and red representing high perfusion. […]
Five images were taken of each mouse, and the average LDPI of the five images was recorded. […]

[1] = tested on: fat grafts in irradiated scalp; experiment: Fat graft volume retention by micro-CT in DFO preconditioned irradiated scalp (Example 1); format: in vivo, mice
Protocol: as §1, §2
Mice were also imaged using a MicroCAT-II in vivo X-Ray micro-CT scanner (Imtek, Inc.; Knoxville, Tenn.) two days after fat graft injection for baseline volume measurements. Fat graft volume retention was then analyzed every two weeks over a total of 8 weeks using microcomputed tomography, and images were reconstructed as three-dimensional surfaces through cubic-spline interpolation. All reconstructions were performed by a single investigator to avoid inter-observer variability.

irradiated scalp skin = experiment: Dermal thickness of irradiated skin, H&E stained sections; format: in vivo, mice; details: after DFO treatment, before fat grafting; saline 256.71±16.76; not significantly less
Protocol: Adult 60-day-old male Crl:NU-Fox1^NU immunocompromised mice were used for experiments in this study. Twelve mice were treated with a total of 30 Gy external beam radiation, delivered as six fractionated doses of 5 Gy each over 12 days, followed by 5 weeks of recovery. An additional six non-irradiated mice were used as healthy controls for laser Doppler analysis (LDA) and skin analysis. Irradiated mice were divided into two treatment groups: a DFO experimental group and saline control group. Following recovery, mice underwent injection of either DFO (1 mg in 100 μl saline) or 100 μl of saline alone beneath the dermis every other day for a total of seven treatments. […] For skin analysis, scalp skin biopsy was harvested from both treatment groups following completion of radiation and then 8 weeks following fat grafting. […] Vascularity was determined with CD31 immunoflourescent staining (1:100 Ab28364; Abcam; Cambridge, Mass. and 1:200 AF547; Thermo Fisher Scientific; Waltham, Mass.) and DAPI counterstaining to visualize cell nuclei. Fluorescent images were obtained using an X-Cite 120 Fluorescence Illumination System (Lumen Dynamics Group, Inc.; Ontario, Canada) at the 20× objective. Quantification of CD31 staining was performed using ImageJ (National Institutes of Health; Bethesda, Md.), with pixel-positive area per high power field measured to determine vascular density (11). […]

[2] = tested on: inguinal fat pads transplanted to parascapular subcutaneous pockets; details: DFO injected fat grafts; cited from earlier work

CC(=O)N(O)CCCCCNC(=O)CCC(=O)N(O)CCCCCNC(=O)CCC(=O)N(O)CCCCCN [DFO, Deferoxamine]
laser Doppler perfusion index at the irradiated scalp (irradiated scalp; after four treatments of 1 mg DFO every other day beneath the dermis, 176.70±2.59 after irradiation, 265.23±7.01 pre-radiation baseline, mean±SE): 205.08±2.30 LDPI | laser Doppler perfusion index following fat grafting (irradiated scalp; eight weeks following grafting, saline 119.18±4.09, p>0.05): 127.78±2.29 LDPI | laser Doppler perfusion index following fat grafting (irradiated scalp; two weeks following injection of fat grafts, saline control 65.72±2.02, p<0.05): 86.33±2.00 LDPI | fat graft volume retention ([1]; two weeks after fat grafting, saline control 74.03): 89.24% | fat graft volume retention ([1]; week 6 after fat grafting, saline 52.40, p<0.05): 73.17% | fat graft volume retention ([1]; week 8 after fat grafting, saline 49.47, p<0.05): 71.75% | dermal thickness of irradiated skin (irradiated scalp skin): 242.09±7.22 μm | inflammation and fibrosis in fat grafts [2]: more inflammation and fibrosis
